Square brackets hold non-standard residues; d marks the D form. Peptide text beside a SMILES is read from it. Abu(4-SO3H) = N[C@@H](CCS(=O)(=O)O)C(=O)O; PhLac = O=C(O)[C@@H](O)Cc1ccccc1
Columns and labels:
GLP-1 receptor = GLP-1 receptor (Homo sapiens, UniProt P43220); assay: cAMP induction, firefly luciferase reporter assay in HEK293 cells; assay type: cell-based; settings: Table 13; cells expressing the human GLP-1 receptor
glucagon receptor [1] = target: T1, glucagon receptor (Homo sapiens, UniProt P47871); assay: cAMP inhibition (antagonism of glucagon-induced cAMP production); assay type: cell-based; design: expressed in transfected cells; host or cells: HEK293; settings: Tables 5-12 and FIGS. 4, 5, 7, 8
glucagon receptor [2] = target: T1, glucagon receptor; assay: cAMP induction, firefly luciferase reporter assay in HEK293 cells; assay type: cell-based; design: expressed in transfected cells; host or cells: HEK293; settings: read-out: cAMP Induction Glucagon Receptor EC50; Table 2
glucagon receptor [3] = target: T1, glucagon receptor; assay: Glucagon receptor binding assay (scintillation proximity competition with 125I-glucagon); settings: 6-29 shortened glucagon amide backbone

T1 sequence (P47871 26-477): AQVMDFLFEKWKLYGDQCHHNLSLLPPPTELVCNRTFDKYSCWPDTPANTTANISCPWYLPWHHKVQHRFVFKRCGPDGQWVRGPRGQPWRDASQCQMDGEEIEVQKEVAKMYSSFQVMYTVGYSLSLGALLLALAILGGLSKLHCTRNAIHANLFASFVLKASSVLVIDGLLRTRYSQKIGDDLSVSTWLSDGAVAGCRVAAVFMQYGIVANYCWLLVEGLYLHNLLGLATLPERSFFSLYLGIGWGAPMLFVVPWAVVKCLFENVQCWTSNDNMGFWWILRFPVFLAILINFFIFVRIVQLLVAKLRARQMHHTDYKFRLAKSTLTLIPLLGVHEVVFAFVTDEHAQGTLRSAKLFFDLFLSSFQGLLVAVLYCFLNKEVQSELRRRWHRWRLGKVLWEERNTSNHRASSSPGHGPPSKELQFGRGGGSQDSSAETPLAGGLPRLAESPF
GLP-1 receptor, sequence (P43220 24-463): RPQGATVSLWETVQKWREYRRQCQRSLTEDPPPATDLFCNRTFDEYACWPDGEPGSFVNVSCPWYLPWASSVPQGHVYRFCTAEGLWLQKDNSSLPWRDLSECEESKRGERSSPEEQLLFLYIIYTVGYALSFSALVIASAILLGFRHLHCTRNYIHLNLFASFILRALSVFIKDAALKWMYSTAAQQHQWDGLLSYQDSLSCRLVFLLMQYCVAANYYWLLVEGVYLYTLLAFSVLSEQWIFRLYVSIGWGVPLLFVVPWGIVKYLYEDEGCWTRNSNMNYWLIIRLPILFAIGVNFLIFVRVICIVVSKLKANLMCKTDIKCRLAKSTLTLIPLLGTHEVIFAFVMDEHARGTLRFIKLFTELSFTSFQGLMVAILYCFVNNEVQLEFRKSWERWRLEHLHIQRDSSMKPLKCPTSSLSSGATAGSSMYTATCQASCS

CSCC[C@H](NC(=O)[C@H](CC(C)C)NC(=O)[C@H](Cc1c[nH]c2ccccc12)NC(=O)[C@H](CCC(N)=O)NC(=O)[C@@H](NC(=O)[C@H](Cc1ccccc1)NC(=O)[C@H](CC(=O)O)NC(=O)[C@H](CCC(N)=O)NC(=O)[C@H](C)NC(=O)[C@H](CCCNC(=N)N)NC(=O)[C@H](CCCNC(=N)N)NC(=O)[C@H](CO)NC(=O)[C@H](CC(=O)O)NC(=O)[C@H](CC(C)C)NC(=O)[C@H](Cc1ccc(O)cc1)NC(=O)[C@H](CCCCN)NC(=O)[C@H](CO)NC(=O)[C@H](Cc1ccc(O)cc1)NC(=O)[C@H](CCC(=O)O)NC(=O)[C@H](CO)NC(=O)[C@@H](NC(=O)[C@@H](O)Cc1ccccc1)[C@@H](C)O)C(C)C)C(=O)N[C@@H](CC(N)=O)C(=O)N[C@H](C(N)=O)[C@@H](C)O [[PLA6, E9]Glucagon(aa6-29)-NH2] (H-[PhLac]TSEYSKYLDSRRAQDFVQWLMNT-NH2) was tested, and the “GLP-1 agonism EC50” value (GLP-1 receptor) was “No agonism”.

For CC(C)C[C@H](NC(=O)[C@H](Cc1ccc(O)cc1)NC(=O)[C@H](CCCCN)NC(=O)[C@H](CO)NC(=O)[C@H](Cc1ccc(O)cc1)NC(=O)[C@H](CCS(=O)(=O)O)NC(=O)[C@H](CO)NC(=O)[C@@H](NC(=O)[C@H](Cc1ccccc1)NC(=O)[C@@H](NC(=O)[C@H](CC(C)C)NC(=O)[C@H](CCC(N)=O)NC(=O)[C@@H](N)CO)[C@@H](C)O)[C@@H](C)O)C(=O)N[C@@H](CC(=O)O)C(=O)N[C@@H](CO)C(=O)N[C@@H](CCCNC(=N)N)C(=O)N[C@@H](CCCNC(=N)N)C(=O)N[C@@H](C)C(=O)N[C@@H](CCC(N)=O)C(=O)N[C@@H](CC(=O)O)C(=O)N[C@@H](Cc1ccccc1)C(=O)N[C@H](C(=O)N[C@@H](CCC(N)=O)C(=O)N[C@@H](Cc1ccccc1)C(=O)N[C@@H](CC(C)C)C(=O)N[C@@H](CC(C)C)C(=O)N[C@@H](CC(N)=O)C(=O)N[C@H](C(N)=O)[C@@H](C)O)C(C)C [[desHis^1, Leu^4, hCys^9(SO3-), Phe^25, Leu^27] Glucagon-NH2] (H-SQLTFTS[Abu(4-SO3H)]YSKYLDSRRAQDFVQFLLNT-NH2; N-terminus assumed), the “glucagon antagonism in the cAMP bioassay, result in words” value (“glucagon antagonism” for short) (glucagon receptor [1]) was “some level of antagonism”.

CC(C)C[C@H](NC(=O)[C@H](Cc1ccc(O)cc1)NC(=O)[C@H](CCCCN)NC(=O)[C@H](CO)NC(=O)[C@H](Cc1ccc(O)cc1)NC(=O)[C@H](CCS(=O)(=O)O)NC(=O)[C@H](CO)NC(=O)[C@@H](NC(=O)[C@@H](NC(=O)CNC(=O)[C@H](CCC(N)=O)NC(=O)[C@@H](N)CO)[C@@H](C)O)[C@@H](C)O)C(=O)N[C@@H](CC(=O)O)C(=O)N[C@@H](CO)C(=O)N[C@@H](CCCNC(=N)N)C(=O)N[C@@H](CCCNC(=N)N)C(=O)N[C@@H](C)C(=O)N[C@@H](CCC(N)=O)C(=O)N[C@@H](CC(=O)O)C(=O)N[C@@H](Cc1ccccc1)C(=O)N[C@H](C(=O)N[C@@H](CCC(N)=O)C(=O)N[C@@H](Cc1ccccc1)C(=O)N[C@@H](CC(C)C)C(=O)N[C@@H](CC(C)C)C(=O)N[C@@H](CC(N)=O)C(=O)N[C@H](C(N)=O)[C@@H](C)O)C(C)C [[desHis^1, desPhe^6, hCys^9(SO3-), Phe^25, Leu^27] Glucagon-NH2] (H-SQGTTS[Abu(4-SO3H)]YSKYLDSRRAQDFVQFLLNT-NH2; N-terminus assumed) was tested, and the “glucagon antagonism” value (glucagon receptor [1]) was “some level of antagonism”.

In the case of CSCC[C@H](NC(=O)[C@H](CC(C)C)NC(=O)[C@H](Cc1c[nH]c2ccccc12)NC(=O)[C@H](CCC(N)=O)NC(=O)[C@@H](NC(=O)[C@H](Cc1ccccc1)NC(=O)[C@H](CC(=O)O)NC(=O)[C@H](CCC(N)=O)NC(=O)[C@H](C)NC(=O)[C@H](CCCNC(=N)N)NC(=O)[C@H](CCCNC(=N)N)NC(=O)[C@H](CO)NC(=O)[C@H](CC(=O)O)NC(=O)[C@H](CC(C)C)NC(=O)[C@H](Cc1ccc(O)cc1)NC(=O)[C@H](CCCCN)NC(=O)[C@H](CO)NC(=O)[C@H](Cc1ccc(O)cc1)NC(=O)[C@H](CCS(=O)(=O)O)NC(=O)[C@H](CO)NC(=O)[C@@H](NC(=O)[C@H](Cc1ccccc1)NC(=O)[C@@H](NC(=O)CN)[C@@H](C)O)[C@@H](C)O)C(C)C)C(=O)N[C@@H](CC(N)=O)C(=O)N[C@H](C(N)=O)[C@@H](C)O [[hCys^9(SO3H)]Glucagon(aa4-29)-NH2, [hCys(SO3H)9]glucagon (4-29) amide] (H-GTFTS[Abu(4-SO3H)]YSKYLDSRRAQDFVQWLMNT-NH2; N-terminus assumed), the “glucagon antagonism” value (glucagon receptor [1]) is reported as “full antagonists”.

In the case of CSCC[C@H](NC(=O)[C@H](CC(C)C)NC(=O)[C@H](Cc1c[nH]c2ccccc12)NC(=O)[C@H](CCC(N)=O)NC(=O)[C@@H](NC(=O)[C@H](Cc1ccccc1)NC(=O)[C@H](CC(=O)O)NC(=O)[C@H](CCC(N)=O)NC(=O)[C@H](C)NC(=O)[C@H](CCCNC(=N)N)NC(=O)[C@H](CCCNC(=N)N)NC(=O)[C@H](CO)NC(=O)[C@H](CC(=O)O)NC(=O)[C@H](CC(C)C)NC(=O)[C@H](Cc1ccc(O)cc1)NC(=O)[C@H](CCCCN)NC(=O)[C@H](CO)NC(=O)[C@H](Cc1ccc(O)cc1)NC(=O)[C@H](CCS(=O)(=O)O)NC(=O)[C@H](CO)NC(=O)[C@@H](NC(=O)[C@H](Cc1ccccc1)NC(=O)[C@@H](N)[C@@H](C)O)[C@@H](C)O)C(C)C)C(=O)N[C@@H](CC(N)=O)C(=O)N[C@H](C(N)=O)[C@@H](C)O [[hCys^9(SO3H)]Glucagon(aa5-29)-NH2, [hCys(SO3H)9]glucagon (5-29) amide] (H-TFTS[Abu(4-SO3H)]YSKYLDSRRAQDFVQWLMNT-NH2; N-terminus assumed), the “glucagon antagonism” value (glucagon receptor [1]; listed as 5-29 hCys9) is reported as “pure potent antagonism, without any measurable agonist activity”, the “glucagon antagonism” value (glucagon receptor [1]; listed as 5-29 hCys9-based glucagon antagonist) is reported as “more potent and effective than the literature standards” and the “glucagon antagonism” value (glucagon receptor [1]; listed as 5-29 hCys(SO3H)^9) is reported as “full antagonists”.

For CSCC[C@H](NC(=O)[C@H](CC(C)C)NC(=O)[C@H](Cc1c[nH]c2ccccc12)NC(=O)[C@H](CCC(N)=O)NC(=O)[C@@H](NC(=O)[C@H](Cc1ccccc1)NC(=O)[C@H](CC(=O)O)NC(=O)[C@H](CCC(N)=O)NC(=O)[C@H](C)NC(=O)[C@H](CCCNC(=N)N)NC(=O)[C@H](CCCNC(=N)N)NC(=O)[C@H](CO)NC(=O)[C@H](CC(=O)O)NC(=O)[C@H](CC(C)C)NC(=O)[C@H](Cc1ccc(O)cc1)NC(=O)[C@H](CCCCN)NC(=O)[C@H](CO)NC(=O)[C@H](Cc1ccc(O)cc1)NC(=O)[C@H](CCS(=O)(=O)O)NC(=O)[C@H](CO)NC(=O)[C@@H](NC(=O)[C@@H](N)Cc1ccccc1)[C@@H](C)O)C(C)C)C(=O)N[C@@H](CC(N)=O)C(=O)N[C@H](C(N)=O)[C@@H](C)O [[hCys^9(SO3H)]Glucagon(aa6-29)-NH2] (H-FTS[Abu(4-SO3H)]YSKYLDSRRAQDFVQWLMNT-NH2), the “glucagon antagonism” value (glucagon receptor [1]; listed as 6-29 hCys9) was “pure potent antagonism, without any measurable agonist activity” and the “glucagon antagonism” value (glucagon receptor [1]; listed as 6-29 hCys(SO3H)^9) was “full antagonists”.

Oxyntomodulin C24 PEG 20 K was tested, and the EC50 (glucagon receptor [2]) was 0.97 ± 0.04 nM.

With “PLA6 analog: native glucagon with first 5 residues deleted and N-terminal amino group of Phe replaced with hydroxyl (phenyl-lactic acid); SEQ ID NO: 39” the “increase of affinity for the glucagon receptor relative to the native Phe6 analog” value (glucagon receptor [3]) was “threefold”.
